Measured values reported in patent US11739074B2, “Ras inhibitors” (Revolution Medicines, Inc., priority 2019, dated 2023).
Read-outs that look alike come from different tables or passages of the source.

Assays:
Type in all cases: cell-based
[1] = tested on: NCI-H358 (K-Ras G12C); assay: CellTiter-Glo cell viability assay, H358; conditions: Homo sapiens, NCI-H358, 120 h
Method: Determination of Cell Viability in RAS Mutant Cancer Cell Lines
Protocol: CellTiter-Glo® Cell Viability Assay
Note—The following protocol describes a procedure for monitoring cell viability of K-Ras mutant cancer cell lines in response to a compound of the invention. Other RAS isoforms may be employed, though the number of cells to be seeded will vary based on cell line used.
Test compounds (132.5 nL) were directly dispensed into the assay plates containing cells. […] On day 5, assay plates and their contents were equilibrated to room temperature for approximately 30 minutes. […] Luminescence was measured using the PerkinElmer Enspire. Data were normalized by the following: (Sample signal/Avg. DMSO)*100. The data were fit using a four-parameter logistic fit.

[2] = tested on: AsPC-1 (K-Ras G12D); assay: CellTiter-Glo cell viability assay, AsPC-1; conditions: Homo sapiens, ASPC1, 120 h
In short: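 Viability is scored by CellTiter-Glo luminescence on day 5 of compound treatment, relative to vehicle (DMSO) wells set as 100%, with a four-parameter logistic fit.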

[3] = tested on: AsPC-1 (K-Ras G12D); assay: Potency assay: pERK in AsPC-1 cells; conditions: Homo sapiens
[4] = AsPC-1, K-Ras G12D, 5-day treatment, read-out: AsPC-1 Cell Viability IC50
[5] = read-out: AsPC-1 Cell Viability IC50, AsPC-1, K-Ras G12D, 5-day treatment
[6] = ASPC1, read-out: pERK EC50 (AsPC-1 KRAS G12D)
[7] = ASPC1, AsPC-1 cells, K-Ras G12D, read-out: pERK EC50 (AsPC-1 KRAS G12D)

Structure (SMILES) | IC50 [2, 4] | IC50 [2, 5] | EC50 [3, 6] | EC50 [3, 7] | further results
CCn1c(-c2cnccc2COC)c2c3cc(ccc31)-c1cccc(c1)C[C@H](NC(=O)[C@H](C(C)C)N(C)C(=O)CCN=C=NCc1ccccc1)C(=O)N1CCC[C@H](N1)C(=O)OCC(C)(C)C2 [19 A and B] | 0.1 to 1 µM | – | – | – | IC50 ([1]; NCI-H358, K-Ras G12C, 5-day treatment, read-out: H358 Cell Viability IC50): 1 to 10 µM
CCn1c(-c2cccnc2[C@H](C)OC)c2c3cc(ccc31)-c1cc(O)cc(c1)C[C@H](NC(=O)[C@H](C(C)C)N(C)C(=O)CN(C)C(=O)[C@H]1CN1CCOC)C(=O)N1CCC[C@H](N1)C(=O)OCC(C)(C)C2 (stereo partly drawn) [Compound 159] | – | 0.1 to 1 µM | – | – | IC50 ([1]; read-out: H358 Cell Viability IC50, NCI-H358, K-Ras G12C, 5-day treatment): < 0.01 µM
CCn1c(-c2cccnc2[C@H](C)OC)c2c3cc(ccc31)-c1cc(O)cc(c1)C[C@H](NC(=O)[C@H](C(C)C)N(C)C(=O)CN(C)C(=O)[C@H]1CN1C1COC1)C(=O)N1CCC[C@H](N1)C(=O)OCC(C)(C)C2 (stereo partly drawn) [Compound 275] | – | 1 to 10 µM | < 5 µM | – | –
CCn1c(-c2cnccc2COC)c2c3cc(ccc31)-c1cc(O)cc(c1)C[C@H](NC(=O)[C@H](C(C)C)N(C)C(=O)CN(C)C(=O)[C@H]1N[C@H]1C1CC1)C(=O)N1CCC[C@H](N1)C(=O)OCC(C)(C)C2 [Compound 104] | – | 1 to 10 µM | < 5 µM | – | –
CCn1c(-c2cccnc2[C@H](C)OC)c2c3cc(ccc31)-c1cc(O)cc(c1)C[C@H](NC(=O)[C@H](C(C)C)N(C)C(=O)[C@H]1C[C@H]3CC[C@@H](C1)N3C(=O)[C@H]1CN1)C(=O)N1CCC[C@H](N1)C(=O)OCC(C)(C)C2 [Compound 245] | 1 to 10 µM | – | – | < 5 µM | –
CCn1c(-c2cccnc2[C@H](C)OC)c2c3cc(ccc31)-c1cc(O)cc(c1)C[C@H](NC(=O)[C@H](C(C)C)N(C)C(=O)[C@]13C[C@H]1CCN3C(=O)[C@@H]1CN1)C(=O)N1CCC[C@H](N1)C(=O)OCC(C)(C)C2 [Compound 166] | 1 to 10 µM | – | – | < 5 µM | –
CCn1c(-c2cccnc2[C@H](C)OC)c2c3cc(ccc31)-c1cc(O)cc(c1)C[C@H](NC(=O)[C@H](C(C)C)N(C)C(=O)[C@H]1CC[C@@H](C)N1C(=O)[C@@H]1CN1)C(=O)N1CCC[C@H](N1)C(=O)OCC(C)(C)C2 [Compound 153] | – | 1 to 10 µM | < 5 µM | – | –
CCn1c(-c2cccnc2[C@H](C)OC)c2c3cc(ccc31)-c1cc(O)cc(c1)C[C@H](NC(=O)[C@H](C(C)C)N(C)C(=O)[C@H]1CC[C@@H](C)N1C(=O)[C@H]1CN1)C(=O)N1CCC[C@H](N1)C(=O)OCC(C)(C)C2 [Compound 154] | – | 1 to 10 µM | < 5 µM | – | –
CCn1c(-c2cccnc2[C@H](C)OC)c2c3cc(ccc31)-c1cc(O)cc(c1)C[C@H](NC(=O)[C@H](C(C)C)N(C)C(=O)[C@H]1CCCN1C(=O)[C@H]1CN1)C(=O)N1CCC[C@H](N1)C(=O)OCC(C)(C)C2 [Compound 152] | – | 1 to 10 µM | < 5 µM | – | –
CCn1c(-c2cccnc2[C@H](C)OC)c2c3cc(ccc31)-c1cc(O)cc(c1)C[C@H](NC(=O)[C@H](C(C)C)N(C)C(=O)C1CCN(S(=O)(=O)[C@@H]3CN3C)CC1)C(=O)N1CCC[C@H](N1)C(=O)OCC(C)(C)C2 (single isomer, unassigned) [Compound 119] | 1 to 10 µM | – | – | < 5 µM | –
CCn1c(-c2cccnc2[C@H](C)OC)c2c3cc(ccc31)-c1cc(O)cc(c1)C[C@H](NC(=O)[C@H](C(C)C)N(C)C(=O)C1CN(S(=O)(=O)[C@H]3CN3C)C1)C(=O)N1CCC[C@H](N1)C(=O)OCC(C)(C)C2 (single isomer, unassigned) [Compound 117] | 1 to 10 µM | – | – | < 5 µM | –
CCn1c(-c2cccnc2[C@H](C)OC)c2c3cc(ccc31)-c1cc(O)cc(c1)C[C@H](NC(=O)[C@H](C(C)C)N(C)C(=O)[C@@H](C)N(C)C(=O)[C@H]1CN1)C(=O)N1CCC[C@H](N1)C(=O)OCC(C)(C)C2 [Compound 114] | – | 1 to 10 µM | < 5 µM | – | –
CCn1c(-c2cnccc2COC)c2c3cc(ccc31)-c1cc(O)cc(c1)C[C@H](NC(=O)[C@H](C(C)C)N(C)C(=O)CN(C)C(=O)[C@H]1N[C@H]1C(=O)OC)C(=O)N1CCC[C@H](N1)C(=O)OCC(C)(C)C2 [Compound 51] | – | > 10 µM | < 5 µM | – | –
CCn1c(-c2cccnc2[C@H](C)OC)c2c3cc(ccc31)-c1cc(O)cc(c1)C[C@H](NC(=O)[C@H](C(C)C)N(C)C(=O)CN(C)C(=O)[C@@H]1CN1CC(=O)N(C)C)C(=O)N1CCC[C@H](N1)C(=O)OCC(C)(C)C2 (stereo partly drawn) [Compound 271] | – | > 10 µM | < 5 µM | – | –
CCn1c(-c2cccnc2[C@H](C)OC)c2c3cc(ccc31)-c1cc(O)cc(c1)C[C@H](NC(=O)[C@H](C(C)C)N(C)C(=O)N1CCCN(C(=O)[C@@H]3CN3)CC1)C(=O)N1CCC[C@H](N1)C(=O)OCC(C)(C)C2 [Compound 173] | 1 to 10 µM | – | – | < 5 µM | –
CCn1c(-c2cccnc2[C@H](C)OC)c2c3cc(ccc31)-c1cc(O)cc(c1)C[C@H](NC(=O)[C@H](C1CCCC1)N(C)C(=O)CN(C)C(=O)[C@H]1N[C@H]1C1(F)CC1)C(=O)N1CCC[C@H](N1)C(=O)OCC(C)(C)C2 [Compound 315] | 0.1 to 1 µM | – | – | < 5 µM | –
CCn1c(-c2cccnc2[C@H](C)OC)c2c3cc(ccc31)-c1cc(O)cc(c1)C[C@H](NC(=O)[C@H](C(C)C)N(C)C(=O)CNC(=O)[C@@H]1CN1)C(=O)N1CCC[C@H](N1)C(=O)OCC(C)(C)C2 [Compound 147] | – | 1 to 10 µM | < 5 µM | – | –
CCn1c(-c2cccnc2[C@H](C)OC)c2c3cc(ccc31)-c1cc(O)cc(c1)C[C@H](NC(=O)[C@H](C(C)C)N(C)C(=O)[C@H]1C[C@H](NC(=O)[C@H]3CN3)C1)C(=O)N1CCC[C@H](N1)C(=O)OCC(C)(C)C2 [Compound 182] | > 10 µM | – | – | < 5 µM | –
CCn1c(-c2cccnc2[C@H](C)OC)c2c3cc(ccc31)-c1cc(O)cc(c1)C[C@H](NC(=O)[C@H](C(C)C)N1CC[C@@H](NC(=O)[C@@H]3CN3)C1=O)C(=O)N1CCC[C@H](N1)C(=O)OCC(C)(C)C2 [Compound 129] | 1 to 10 µM | – | – | < 5 µM | –
CCn1c(-c2cccnc2[C@H](C)OC)c2c3cc(ccc31)-c1cc(O)cc(c1)C[C@H](NC(=O)[C@H](C(C)C)N(C)C(=O)CN(C)C(=O)[C@H]1CN1CCCN1CCCC1=O)C(=O)N1CCC[C@H](N1)C(=O)OCC(C)(C)C2 (stereo partly drawn) [Example 268, (2R)—N-(2-(((2S)-1-(((6^3S,4S)-1^1-ethyl-2^5-hydroxy-1^2-(2-((S)-1-methoxyethyl)pyridin-3-yl)-10,10-dimethyl-5,7-dioxo-6^1,6^2,6^3,6^4,6^5,6^6-hexahydro-1^1H-8-oxa-1(5,3)-indola-6(1,3)-pyridazina-2(1,3)-benzenacycloundecaphane-4-yl)amino)-3-methyl-1-oxobutan-2-yl)(methyl)amino)-2-oxoethyl)-N-methyl-1-(3-(2-oxopyrrolidin-1-yl)propyl)aziridine-2-carboxamide] | – | 1 to 10 µM | < 5 µM | – | –
CCn1c(-c2cccnc2[C@H](C)OC)c2c3cc(ccc31)-c1cc(O)cc(c1)C[C@H](NC(=O)[C@H](C(C)C)N(C)C(=O)c1ccc([C@@H]3CN3)nc1)C(=O)N1CCC[C@H](N1)C(=O)OCC(C)(C)C2 [Example 87, 6-((S)-aziridin-2-yl)-N-((2S)-1-(((6^3S,4S)-1^1-ethyl-2^5-hydroxy-1^2-(2-((S)-1-methoxyethyl)pyridin-3-yl)-10,10-dimethyl-5,7-dioxo-6^1,6^2,6^3,6^4,6^5,6^6-hexahydro-1^1H-8-oxa-1(5,3)-indola-6(1,3)-pyridazina-2(1,3)-benzenacycloundecaphane-4-yl)amino)-3-methyl-1-oxobutan-2-yl)-N-methylnicotinamide] | 1 to 10 µM | – | – | < 5 µM | –
CCn1c(-c2cccnc2[C@H](C)OC)c2c3cc(ccc31)-c1cc(O)cc(c1)C[C@H](NC(=O)[C@H](C(C)C)N(C)C(=O)[C@]13C[C@H]1CCN3C(=O)[C@H]1CN1)C(=O)N1CCC[C@H](N1)C(=O)OCC(C)(C)C2 [Compound 244] | 1 to 10 µM | – | – | < 5 µM | –
CCn1c(-c2cccnc2[C@H](C)OC)c2c3cc(ccc31)-c1cc(O)cc(c1)C[C@H](NC(=O)[C@H](C1CCCC1)N(C)C(=O)CN(C)C(=O)[C@@H]1N[C@@H]1C1(C#N)CC1)C(=O)N1CCC[C@H](N1)C(=O)OCC(C)(C)C2 (single isomer, unassigned) [Compound 308] | 1 to 10 µM | – | – | < 5 µM | –
CCn1c(-c2cccnc2[C@H](C)OC)c2c3cc(ccc31)-c1cc(O)cc(c1)C[C@H](NC(=O)[C@H](C(C)C)N(C)C(=O)[C@H]1C[C@H]3CC[C@@H](C1)N3C(=O)[C@@H]1CN1)C(=O)N1CCC[C@H](N1)C(=O)OCC(C)(C)C2 [Compound 246] | 1 to 10 µM | – | – | < 5 µM | –
